These results are taken from patent US9993516B2, “Treatment of left ventricular non-compaction and dilated cardiomyopathy by inhibiting melanocortin receptor four” (THE BRIGHAM AND WOMEN'S HOSPITAL, INC., priority 2013, dated 2018).

The test system of data set [1] is PRDM16 morphant knockdown embryos and truncation mutant (p.K702X) transgenics. Nature of the data set: Cardiac function (cardiac output) by video microscopy in PRDM16 morphant and truncation mutant zebrafish embryos, rescue experiments. In kind it is in vivo. To be noted: for rescue of reduced cardiac output (contractile impairment): injected into yolk sac at one-cell stage, MCL0020, HS014, SU9119 1 μM, JKC363 2 μM, HS024 200 nM, THIQ 1 μM and 500 μM. As to the method:
Morpholinos directed against the translation start codon were 5'-[…] NO: 7) for prdm16 (Gene Tools (Philomath, Oreg.)) and were injected at the one cell stage. Concentrations of 0.2 mM were used. For cardiac-specific overexpression experiments the human PRDM16 truncation mutation ([…]) and the human PRDM16 wildtype were cloned downstream of the cmlc2 promoter into the Tol2kit expression system using Gateway technology (Invitrogen). PRDM16 constructs (15 ng/μl) were co-injected with 10 ng/μl capped Tol2 transposase mRNA into one-cell-stage zebrafish embryos.

Data set [2] concerns healthy wildtype zebrafish embryos.
Protocol: MC4 receptor antagonists and agonists were dissolved in 100% DMSO to a stock concentration of 1 mM. Working solutions were diluted in nuclease free water. The concentrations for MCL0020, HS014, SU9119 were 1 μM, for JKC363 2 μM, HS024 200 nM and for the MC4 receptor agonist THIQ 1 μM and 500 μM.
(§1) Working solutions of 10 nM, 100 nM or 1 μM were diluted in 20 ml E3 water and zebrafish embryos were incubated directly after birth. Cardiac function was assessed at 48 hpf as described below.
For analysis of cardiac function embryos were laterally positioned and allowed to acclimate at 24° C. Video microscopy was performed on an Axioplan (Zeiss) upright microscope with a FastCam-PCI high-Speed digital camera (Photron) on top. 1088 frames were digitally captured at identical frame rates (250 frames per second) and magnification (5×). Sequential images were analyzed for heart rate and cardiac output using IMAGEJ and Excel. Experiments were repeated at least 3 times on each occasion using 10 animals.
Data set [3] relates to PRDM16 mutant model as well as wildtype fish. Nature of the data set: Tail necrosis on norepinephrine incubation of zebrafish embryos. To be noted: high doses of norepinephrine. The format is in vivo.
Protocol: as §1
The test system of data set [4] is PRDM16 morphant and truncation mutant hearts. As to the kind of experiment: Cardiomyocyte proliferation (PCNA staining) in isolated hearts of PRDM16 morphant/mutant zebrafish. In kind it is in vivo. To be noted: hearts at 48 hpf. As to the method:
For proliferation detection hearts from 48 hpf old zebrafish embryos were isolated and fixed in Prefer fixative (Anatech). The fixed hearts were stained with the primary antibodies rabbit anti-PCNA 1:200 (Abcam) and mouse anti-MF20 1:100 (DSHB), and the secondary antibodies donkey or goat anti-rabbit or mouse Alexa 488 or 546 conjugated (Invitrogen) 1:1,000. Hearts were mounted with ProLong Antifade reagent with DAPI mounting medium on a slide. Confocal images were analyzed using IMAGEJ.

Another data set concerns PRDM16 mutants. As to the kind of experiment: Apoptosis (TUNEL assay) in isolated hearts of PRDM16 mutant zebrafish. In kind it is in vivo. To be noted: hearts at 48 hpf. The procedure: For detection of apoptosis hearts from 48 hpf old zebrafish embryos were isolated and fixed in 4% PFA/PBS for 30 min and washed twice in PBS-T for 30 min. TUNEL assay was performed by using the in situ cell detection kit from Roche. Hearts were mounted with ProLong Antifade reagent with DAPI on a slide and confocal images were analyzed using IMAGEJ.

In data set [5] the test system is PRDM16 morphant and mutant hearts. As to the kind of experiment: Intercellular coupling / conduction velocity by optical mapping of isolated zebrafish embryo hearts. The format is in vivo. As to the method: Intercellular coupling parameters in zebrafish embryo hearts were measured using previously reported techniques. Briefly, hearts were isolated from zebrafish embryos, stained with the transmembrane-potential-sensitive dye di-8-ANEPPS (Invitrogen) and placed into a perfusion chamber that was mounted onto the stage of an inverted microscope. Excitation light from a high-intensity Hg arc lamp was transmitted through a 525/50-nm bandpass filter and reflected onto the preparation via a 565-nm dichroic mirror. Fluorescence emission was filtered by a 685/80-nm bandpass filter and recorded at a rate of 2000 s^-1 by a high-speed CCD camera (CardioCCD-[…]). Single-pixel action potentials were extracted from the fluorescence data and conduction velocities were estimated using an established algorithm. Experiments were repeated at least 2 times with 5 animals. Immunofluorescence, Detection of Apotosis and Mitochondrial Assessment

Consider `O=C(N[C@H](Cc1ccc(Cl)cc1)C(=O)N1CCC(Cn2cncn2)(C2CCCCC2)CC1)[C@H]1Cc2ccccc2CN1` [THIQ], for which the “rescue of reduced cardiac output (contractile impairment)” value in data set [1] is recorded as “not able to rescue”. In data set [2] (THIQ 1 μM and 500 μM), the “cardiac output in wildtype embryos” value is recorded as “decreases cardiac output”. Further, the heart rate entry in data set [2] (THIQ, FIGS. 8A and 8B, fish group not given) was “not altered”.

For `NC[C@H](O)c1ccc(O)c(O)c1` [norepinephrine], the “rescue of contractile dysfunction” value in data set [1] (PRDM16 mutant model, norepinephrine doses of 10 nM up to 1 μM, incubation in E3 water, 48 hpf) is “able to rescue”. In addition, in data set [3], the “necrosis of the tail” value was “necrosis of the tail”.

For the compound HS024, the “rescue of reduced cardiac output (contractile impairment)” value in data set [1] is “efficiently rescued”. For the same compound, the “decreased cardiomyocyte proliferation (percentage of PCNA positive cells)” value in data set [4] is recorded as “prevented or reduced”. Further, the increased apoptosis entry in the data set on PRDM16 mutants is given as “restored”. In data set [5], the “disrupted coupling of cells (reduction in impulse propagation velocities)” value is recorded as “rescued”.
